In patent US20070166547A1, “Use of a layer consisting of hydrophobic linear, or two-dimensional polycyclic aromatics as a barrier layer or an encapsulation and electric components constructed with a layer of this type and comprising organic polymers” (priority 2003, published 2007):

Legend:
plasma hemostasis = assay: Autocoagulation test (coagulating activity A) after intravenous administration; format: in vivo, rabbit; conditions: for effect on the coagulation activity, autocoagulation test (overall): doses 15.0, 30.0, 60.0 mg/kg
Protocol: The investigations were performed on 72 rabbits of the “Chinchilla” breed with a mass of 2.5±0.3 kg, who were administered which solutions of compounds 2, 15, 21, 37 in doses of 15, 30 and 60 mg/kg intravenously. The experiments included the thrombin-test (series No. 7300) and the coagulability-test (series No. 5000) purchased from the scientific-and-production association (SPA) “Renam”, thromboplastin (series No. 240600) and calcium chloride purchased from the SPA “MedioLab”
The static parameters of the blood and plasma coagulation (partial activated thromboplastin time, thrombin time, maximum coagulation activity (test for auto coagulation) were determined using the Behnk Electronic coagulometer (Germany). The operating principle of this instrument is based on the fact that the formed blood clot breaks the contacts of the pulse counter in the flask-pin circuit, said pin permanently oscillating in a vertical plane. The moment of formation of the clot is registered by stopping the stop watch hand.
The measurements were effected at a constant temperature of 37° C. maintained by a temperature control unit.
Compounds 2, 15, 21, 37 according to the invention at a concentration of 15, 30 and 60 mg/kg were intravenously administered to the above experimental animals and their blood samples were taken off 15, 30, 60 and 120 minutes after the administration.
Added to 0.2 ml of plasma obtained by centrifuging citrate blood at 1500 rev/min within 10 minutes was a glycosilate-calcium mixture (2.0 ml 0.222% CaCl2+0.1 ml of investigated citrate blood) 4, 6, 8, 10 minutes after the preparation of this mixture and the time of coagulation in the sample was determined.
The obtained results in seconds were translated in factors of coagulating activity A in percent, which specify the state of both the coagulating and anticoagulating parts of the blood coagulating system.

[1] = Polarographic study of electrochemical reduction (electrochemical activity); format: physicochemical; conditions: for number of electrons participating in the reduction: calculated with the Geirovsky-Ilkovich equation; for i, mkA (polarographic wave current) / −E1/2, V (half-wave potential vs SCE): 37° C., forward trace, average for the group; for i, mkA (polarographic wave current): 9·10^−4 M; for half-wave potential more positive on reverse stroke than on forward stroke: reverse stroke vs forward stroke
How it was run: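 DC polarography at 37 °C on a dropping mercury electrode (0.5 s drop) against SCE with a Pt auxiliary electrode. Compounds at 9·10^−4 M in N2-purged 2.0% NaCl at pH 7.0–7.6, scanned 0 to −0.5 V at 10.0 mV/s. E1/2 and ilim were determined graphically; electron number was derived by Heyrovsky–Ilkovič analysis.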

With `Nc1ccnc2c(=O)n([C@@H]3O[C@H](CO)[C@@H](O)[C@H]3O)[nH]c(=O)c12` [Compound 2, 4-amino-7-(β-D-ribofuranosile)pyrido[2,3-d]-6H-pyridazine-5,8-dione] the “A, % after 15 minutes (coagulating activity)” value (shortened to “A, % after 15 minutes”) (plasma hemostasis; dose 15.0 mg/kg intravenously) was 80.2%, the “A, % after 30 minutes (coagulating activity)” value (“A, % after 30 minutes” for short) (plasma hemostasis; dose 15.0 mg/kg intravenously) was 100.0% and the “A, % after 60 minutes (coagulating activity)” value (“A, % after 60 minutes” below) (plasma hemostasis; dose 15.0 mg/kg intravenously) was 87.4%. For the same compound, the “A, % after 120 minutes (coagulating activity)” value (shortened to “A, % after 120 minutes”) (plasma hemostasis; dose 15.0 mg/kg intravenously) was 98.0%, the “A, % after 15 minutes” value (plasma hemostasis; dose 30.0 mg/kg intravenously) was 98.4% and the “A, % after 30 minutes” value (plasma hemostasis; dose 30.0 mg/kg intravenously) was 71.2%. The “A, % after 60 minutes” value (plasma hemostasis; dose 30.0 mg/kg intravenously) was 104.2%, the “A, % after 120 minutes” value (plasma hemostasis; dose 30.0 mg/kg intravenously) was 70.9% and the “A, % after 15 minutes” value (plasma hemostasis; dose 60.0 mg/kg intravenously) was 72.3%. For the same compound, the “A, % after 30 minutes” value (plasma hemostasis; dose 60.0 mg/kg intravenously) was 60.8%, the “A, % after 60 minutes” value (plasma hemostasis; dose 60.0 mg/kg intravenously) was 62.5% and the “A, % after 120 minutes” value (plasma hemostasis; dose 60.0 mg/kg intravenously) was 65.7%. For the same compound, the “effect on the coagulation activity, autocoagulation test (overall)” value (from here on “effect on the coagulation activity”) (plasma hemostasis) was “have no effect on the coagulation activity”.

With `Nc1cccc2c(=O)[nH][nH]c(=O)c12.[Na]` [Compound 15, sodium salt of 5-amino-benzo[d]-3H-pyridazine-1,4-dione] the “A, % after 15 minutes” value (plasma hemostasis; dose 15.0 mg/kg intravenously) was 82.3%, the “A, % after 30 minutes” value (plasma hemostasis; dose 15.0 mg/kg intravenously) was 103.0% and the “A, % after 60 minutes” value (plasma hemostasis; dose 15.0 mg/kg intravenously) was 89.0%. The “A, % after 120 minutes” value (plasma hemostasis; dose 15.0 mg/kg intravenously) was 101.2%, the “A, % after 15 minutes” value (plasma hemostasis; dose 30.0 mg/kg intravenously) was 100.3% and the “A, % after 30 minutes” value (plasma hemostasis; dose 30.0 mg/kg intravenously) was 68.4%. The “A, % after 60 minutes” value (plasma hemostasis; dose 30.0 mg/kg intravenously) was 106.6%, the “A, % after 120 minutes” value (plasma hemostasis; dose 30.0 mg/kg intravenously) was 70.6% and the “A, % after 15 minutes” value (plasma hemostasis; dose 60.0 mg/kg intravenously) was 74.4%. The “A, % after 30 minutes” value (plasma hemostasis; dose 60.0 mg/kg intravenously) was 63.2%, the “A, % after 60 minutes” value (plasma hemostasis; dose 60.0 mg/kg intravenously) was 64.4% and the “A, % after 120 minutes” value (plasma hemostasis; dose 60.0 mg/kg intravenously) was 66.5%. For the same compound, the “effect on the coagulation activity” value (plasma hemostasis) was “have no effect on the coagulation activity”, the “number of electrons participating in the reduction” value (from here on “number … in the reduction”) [1] was 4.09 and the “i, mkA (polarographic wave current)” value ([1]; pH 7.0) was 0.23 ± 0.03 mkA. The “−E1/2, V (half-wave potential vs SCE)” value ([1]; pH 7.0) was 0.092 ± 0.02 V, the “i, mkA (polarographic wave current)” value ([1]; pH 7.2) was 0.30 ± 0.01 mkA and the “−E1/2, V (half-wave potential vs SCE)” value ([1]; pH 7.2) was 0.09 ± 0.01 V. For the same compound, the “i, mkA (polarographic wave current)” value ([1]; pH 7.4) was 0.29 ± 0.02 mkA, the “−E1/2, V (half-wave potential vs SCE)” value ([1]; pH 7.4) was 0.092 ± 0.02 V and the “i, mkA (polarographic wave current)” value ([1]; pH 7.6) was 0.31 ± 0.02 mkA. The “−E1/2, V (half-wave potential vs SCE)” value ([1]; pH 7.6) was 0.09 ± 0.01 V and the “half-wave potential more positive on reverse stroke than on forward stroke” value (from here on “half-wave potential more positive”) [1] was 30.0 mV.

In the case of `Nc1cnc2c(=O)n([C@@H]3O[C@H](CO)[C@@H](O)[C@H]3O)[nH]c(=O)c2n1.[Na]` [Compound 21, sodium salt of 3-amino-7-(β-D-ribofuranosile)pyrazine[2,3-d]-6H-pyridazine-5,8-dione], the “A, % after 15 minutes” value (plasma hemostasis; dose 15.0 mg/kg intravenously) was 81.4%, the “A, % after 30 minutes” value (plasma hemostasis; dose 15.0 mg/kg intravenously) was 101.3% and the “A, % after 60 minutes” value (plasma hemostasis; dose 15.0 mg/kg intravenously) was 86.5%. The “A, % after 120 minutes” value (plasma hemostasis; dose 15.0 mg/kg intravenously) was 97.4%, the “A, % after 15 minutes” value (plasma hemostasis; dose 30.0 mg/kg intravenously) was 97.2% and the “A, % after 30 minutes” value (plasma hemostasis; dose 30.0 mg/kg intravenously) was 69.1%. For the same compound, the “A, % after 60 minutes” value (plasma hemostasis; dose 30.0 mg/kg intravenously) was 103.7%, the “A, % after 120 minutes” value (plasma hemostasis; dose 30.0 mg/kg intravenously) was 71.0% and the “A, % after 15 minutes” value (plasma hemostasis; dose 60.0 mg/kg intravenously) was 71.9%. The “A, % after 30 minutes” value (plasma hemostasis; dose 60.0 mg/kg intravenously) was 62.1%, the “A, % after 60 minutes” value (plasma hemostasis; dose 60.0 mg/kg intravenously) was 63.7% and the “A, % after 120 minutes” value (plasma hemostasis; dose 60.0 mg/kg intravenously) was 66.2%. For the same compound, the “effect on the coagulation activity” value (plasma hemostasis) was “have no effect on the coagulation activity”.

For `O=c1[nH]n([C@@H]2O[C@H](CO)[C@@H](O)[C@H]2O)c(=O)c2nc(O)cnc12.[Na].[Na]` [Compound 23, disodium salt of 2-hydroxy-7-(β-D-ribofuranosile)pyrazine[2,3-Cl]-6H-pyridazine-5,8-dione], the “number … in the reduction” value [1] was 3.72, the “i, mkA (polarographic wave current)” value ([1]; pH 7.0) was 0.32 ± 0.03 mkA and the “−E1/2, V (half-wave potential vs SCE)” value ([1]; pH 7.0) was 0.16 ± 0.02 V. For the same compound, the “i, mkA (polarographic wave current)” value ([1]; pH 7.2) was 0.33 ± 0.04 mkA, the “−E1/2, V (half-wave potential vs SCE)” value ([1]; pH 7.2) was 0.19 ± 0.02 V and the “i, mkA (polarographic wave current)” value ([1]; pH 7.4) was 0.34 ± 0.03 mkA. For the same compound, the “−E1/2, V (half-wave potential vs SCE)” value ([1]; pH 7.4) was 0.175 ± 0.01 V, the “i, mkA (polarographic wave current)” value ([1]; pH 7.6) was 0.34 ± 0.02 mkA and the “−E1/2, V (half-wave potential vs SCE)” value ([1]; pH 7.6) was 0.16 ± 0.015 V. The “half-wave potential more positive” value [1] was 20.0 mV.

In the case of `O=c1[nH][nH]c(=O)c2nccnc12.[Li]` [Compound 25, lithium salt of pyrazine[2,3-d]-6H-pyridazine-5,8-dione], the “number … in the reduction” value [1] was 3.72, the “i, mkA (polarographic wave current)” value ([1]; pH 7.0) was 0.32 ± 0.03 mkA and the “−E1/2, V (half-wave potential vs SCE)” value ([1]; pH 7.0) was 0.16 ± 0.02 V. The “i, mkA (polarographic wave current)” value ([1]; pH 7.2) was 0.33 ± 0.04 mkA, the “−E1/2, V (half-wave potential vs SCE)” value ([1]; pH 7.2) was 0.19 ± 0.02 V and the “i, mkA (polarographic wave current)” value ([1]; pH 7.4) was 0.34 ± 0.03 mkA. For the same compound, the “−E1/2, V (half-wave potential vs SCE)” value ([1]; pH 7.4) was 0.175 ± 0.01 V, the “i, mkA (polarographic wave current)” value ([1]; pH 7.6) was 0.34 ± 0.02 mkA and the “−E1/2, V (half-wave potential vs SCE)” value ([1]; pH 7.6) was 0.16 ± 0.015 V. For the same compound, the “half-wave potential more positive” value [1] was 20.0 mV.

With `Nc1ncc2c(=O)[nH][nH]c(=O)c2n1` [Compound 36, 2-amino-pyrimido[4,5-d]-6H-pyridazine-5,8-dione] the “number … in the reduction” value [1] was 3.5, the “i, mkA (polarographic wave current)” value ([1]; pH 7.0) was 0.30 ± 0.05 mkA and the “−E1/2, V (half-wave potential vs SCE)” value ([1]; pH 7.0) was 0.08 ± 0.02 V. For the same compound, the “i, mkA (polarographic wave current)” value ([1]; pH 7.2) was 0.26 ± 0.02 mkA, the “i, mkA (polarographic wave current)” value ([1]; pH 7.4) was 0.30 ± 0.03 mkA and the “−E1/2, V (half-wave potential vs SCE)” value ([1]; pH 7.4) was 0.085 ± 0.02 V. The “i, mkA (polarographic wave current)” value ([1]; pH 7.6) was 0.30 ± 0.02 mkA and the “−E1/2, V (half-wave potential vs SCE)” value ([1]; pH 7.6) was 0.09 ± 0.02 V.

With `O=c1[nH][nH]c(=O)c2c(Br)ncnc12.[K]` [Compound 37, potassium salt of 4-bromine-pyrimido[4,5-D]-6H-pyridazine-5,8-dione] the “A, % after 15 minutes” value (plasma hemostasis; dose 15.0 mg/kg intravenously) was 82.1%, the “A, % after 30 minutes” value (plasma hemostasis; dose 15.0 mg/kg intravenously) was 102.8% and the “A, % after 60 minutes” value (plasma hemostasis; dose 15.0 mg/kg intravenously) was 88.7%. The “A, % after 120 minutes” value (plasma hemostasis; dose 15.0 mg/kg intravenously) was 100.6%, the “A, % after 15 minutes” value (plasma hemostasis; dose 30.0 mg/kg intravenously) was 99.8% and the “A, % after 30 minutes” value (plasma hemostasis; dose 30.0 mg/kg intravenously) was 68.3%. The “A, % after 60 minutes” value (plasma hemostasis; dose 30.0 mg/kg intravenously) was 105.8%, the “A, % after 120 minutes” value (plasma hemostasis; dose 30.0 mg/kg intravenously) was 70.4% and the “A, % after 15 minutes” value (plasma hemostasis; dose 60.0 mg/kg intravenously) was 74.3%. For the same compound, the “A, % after 30 minutes” value (plasma hemostasis; dose 60.0 mg/kg intravenously) was 63.0%, the “A, % after 60 minutes” value (plasma hemostasis; dose 60.0 mg/kg intravenously) was 64.2% and the “A, % after 120 minutes” value (plasma hemostasis; dose 60.0 mg/kg intravenously) was 66.3%. The “effect on the coagulation activity” value (plasma hemostasis) was “have no effect on the coagulation activity”.
